Results taken from ChEMBL document CHEMBL1158272, “Novel antiplatelet constituents from formosan moraceous plants” (J Nat Prod, 1996).
≈ marks a conversion by molar mass, not a printed value. One block for each compound: values may come before it.

Key:
[1] = Inhibition of ram seminal vesicle cyclooxygenase pretreated 2 mins before arachidonate substrate addition; format: tissue-based, Ovis aries
[2] = Antiplatelet activity against rabbit platelets assessed as arachidonic acid-induced platelet aggregation at 100 uM by turbidimetric method; format: functional, Oryctolagus cuniculus
[3] = Antiplatelet activity against rabbit platelets assessed as collagen-induced platelet aggregation at 100 uM by turbidimetric method; format: functional, Oryctolagus cuniculus
[4] = Antiplatelet activity against rabbit platelets assessed as platelet-activating facto-induced platelet aggregation at 100 uM by turbidimetric method; format: functional, Oryctolagus cuniculus
[5] = Antiplatelet activity against rabbit platelets assessed as thrombin-induced platelet aggregation at 100 uM by turbidimetric method; format: functional, Oryctolagus cuniculus
[6] = Antiplatelet activity against rabbit platelets assessed as arachidonic acid-induced platelet aggregation by turbidimetric method; format: functional, cell-based; details: Oryctolagus cuniculus
[7] = Antiplatelet activity against rabbit platelets assessed as arachidonic acid-induced platelet aggregation at 300 uM by turbidimetric method; format: functional, Oryctolagus cuniculus
[8] = Antiplatelet activity against rabbit platelets assessed as collagen-induced platelet aggregation at 300 uM by turbidimetric method; format: functional, Oryctolagus cuniculus
[9] = Antiplatelet activity against rabbit platelets assessed as platelet-activating facto-induced platelet aggregation at 300 uM by turbidimetric method; format: functional, Oryctolagus cuniculus
[10] = Antiplatelet activity against rabbit platelets assessed as thrombin-induced platelet aggregation at 300 uM by turbidimetric method; format: functional, Oryctolagus cuniculus
[11] = Antiplatelet activity against human platelets in platelet rich plasma assessed as adrenaline-induced platelet aggregation at 450 uM pretreated 3 mins before adrenaline challenge by turbidimetric method; format: functional
[12] = Antiplatelet activity against rabbit platelets assessed as collagen-induced platelet aggregation at 60 uM by turbidimetric method; format: functional, Oryctolagus cuniculus
[13] = Antiplatelet activity against rabbit platelets assessed as platelet-activating facto-induced platelet aggregation at 60 uM by turbidimetric method; format: functional, Oryctolagus cuniculus
[14] = Antiplatelet activity against rabbit platelets assessed as arachidonic acid-induced platelet aggregation at 15 uM by turbidimetric method; format: functional, Oryctolagus cuniculus
[15] = Antiplatelet activity against rabbit platelets assessed as collagen-induced platelet aggregation at 15 uM by turbidimetric method; format: functional, Oryctolagus cuniculus
[16] = Antiplatelet activity against rabbit platelets assessed as collagen-induced platelet aggregation by turbidimetric method; format: functional, cell-based; details: Oryctolagus cuniculus
[17] = Antiplatelet activity against rabbit platelets assessed as platelet-activating facto-induced platelet aggregation by turbidimetric method; format: functional, cell-based; details: Oryctolagus cuniculus
[18] = Antiplatelet activity against human platelets in platelet rich plasma assessed as adrenaline-induced platelet aggregation at 300 uM pretreated 3 mins before adrenaline challenge by turbidimetric method; format: functional
[19] = Antiplatelet activity against human platelets in platelet rich plasma assessed as adrenaline-induced platelet aggregation at 150 uM pretreated 3 mins before adrenaline challenge by turbidimetric method; format: functional
[20] = Antiplatelet activity against human platelets in platelet rich plasma assessed as adrenaline-induced platelet aggregation at 100 uM pretreated 3 mins before adrenaline challenge by turbidimetric method; format: functional
[21] = Antiplatelet activity against rabbit platelets assessed as arachidonic acid-induced platelet aggregation at 30 uM by turbidimetric method; format: functional, Oryctolagus cuniculus
[22] = Antiplatelet activity against rabbit platelets assessed as collagen-induced platelet aggregation at 30 uM by turbidimetric method; format: functional, Oryctolagus cuniculus
[23] = Antiplatelet activity against rabbit platelets assessed as platelet-activating facto-induced platelet aggregation at 30 uM by turbidimetric method; format: functional, Oryctolagus cuniculus
[24] = Antiplatelet activity against rabbit platelets assessed as arachidonic acid-induced platelet aggregation at 20 uM by turbidimetric method; format: functional, Oryctolagus cuniculus
[25] = Antiplatelet activity against rabbit platelets assessed as collagen-induced platelet aggregation at 20 uM by turbidimetric method; format: functional, Oryctolagus cuniculus
[26] = Antiplatelet activity against rabbit platelets assessed as platelet-activating facto-induced platelet aggregation at 20 uM by turbidimetric method; format: functional, Oryctolagus cuniculus
[27] = Antiplatelet activity against rabbit platelets assessed as thrombin-induced platelet aggregation at 20 uM by turbidimetric method; format: functional, Oryctolagus cuniculus
[28] = Antiplatelet activity against human platelets in platelet rich plasma assessed as adrenaline-induced platelet aggregation at 50 uM pretreated 3 mins before adrenaline challenge by turbidimetric method; format: functional
[29] = Antiplatelet activity against rabbit platelets assessed as arachidonic acid-induced platelet aggregation at 50 uM by turbidimetric method; format: functional, Oryctolagus cuniculus
[30] = Antiplatelet activity against rabbit platelets assessed as collagen-induced platelet aggregation at 50 uM by turbidimetric method; format: functional, Oryctolagus cuniculus
[31] = Antiplatelet activity against rabbit platelets assessed as platelet-activating facto-induced platelet aggregation at 50 uM by turbidimetric method; format: functional, Oryctolagus cuniculus
[32] = Antiplatelet activity against rabbit platelets assessed as thrombin-induced platelet aggregation at 50 uM by turbidimetric method; format: functional, Oryctolagus cuniculus
[33] = Antiplatelet activity against rabbit platelets assessed as arachidonic acid-induced platelet aggregation at <100 uM by turbidimetric method; format: functional, Oryctolagus cuniculus
[34] = Antiplatelet activity against rabbit platelets assessed as collagen-induced platelet aggregation at <100 uM by turbidimetric method; format: functional, Oryctolagus cuniculus
[35] = Antiplatelet activity against rabbit platelets assessed as platelet-activating facto-induced platelet aggregation at <100 uM by turbidimetric method; format: functional, Oryctolagus cuniculus
[36] = Antiplatelet activity against rabbit platelets assessed as thrombin-induced platelet aggregation at <100 uM by turbidimetric method; format: functional, Oryctolagus cuniculus

Compound: COc1cc(O)c2c(=O)cc(-c3ccc(O)cc3O)oc2c1CC=C(C)C [ARTOCARPETIN A]
Activity [7]: 61.8% | Activity [8]: 46.8% | Activity [9]: 59.8% | Activity [10]: 80.4%

Compound: CC(C)=CCc1c2c(c(O)c3c(=O)c4c(oc13)-c1cc(O)c(O)cc1OC4C=C(C)C)C=CC(C)(C)O2 (stereo unspecified) [CYCLOHETERPHYLLIN]
Activity [19]: 55.1% | Activity [20]: 61.6% | IC50 [1]: 26.1 µg/mL (≈ 51.9 µM) | Activity [7]: 0% | Activity [8]: 33.8% | Activity [9]: 4.5% | Activity [10]: 82.4% | IC50 [6]: 10.9 µM | Activity [18]: 35.5%

Compound: CC(C)=CCc1cc([C@@H]2CCc3ccc(O)cc3O2)c(CC=C(C)C)c(O)c1O [KAZINOL A]
Activity [21]: 0% | Activity [22]: 0% | Activity [23]: 65.8% | IC50 [6]: 11.4 µM | IC50 [16]: 20.7 µM | IC50 [17]: 54.6 µM

Compound: CC(=O)Oc1ccccc1C(=O)O [ASPIRIN]
Activity [28]: 39.6% | Activity [29]: 0% | Activity [30]: 85.4% | Activity [31]: 90.5% | Activity [32]: 91.9%

Compound: COc1cc(OC)c([C@@H]2CC(=O)c3c(O)cc(OC)c(CC=C(C)C)c3O2)c(OC)c1
Activity [7]: 81.5% | Activity [8]: 68.9% | Activity [9]: 84.5% | Activity [10]: 85.7%

Compound: CC(C)=CCc1c(-c2oc3c(CC=C(C)C)c(O)cc(O)c3c(=O)c2O)cc(O)c(O)c1CC=C(C)C [BROUSSOFLAVONOL E]
Activity [2]: 0% | Activity [3]: 0% | Activity [4]: 86.4% | Activity [5]: 91.8% | IC50 [6]: 39.9 µM

Compound: CC(=O)Oc1cc(O)c(C(=O)/C=C/c2ccc(OC(C)=O)c(OC(C)=O)c2)cc1CC=C(C)C [BROUSSOCHALCONE TRIACETATE]
Activity [7]: 9.3% | Activity [8]: 23.1% | Activity [9]: 0% | Activity [10]: 88.4% | Activity [2]: 9.6% | Activity [4]: 82.1% | IC50 [6]: 91.7 µM

Compound: CC(C)=CCc1c(-c2cc(O)c(O)cc2O)oc2c(CC=C(C)C)c3c(c(O)c2c1=O)C=CC(C)(C)O3 [HETEROPHYLLIN]
Activity [2]: 0% | Activity [3]: 0% | Activity [4]: 32% | Activity [5]: 80.2% | IC50 [6]: 49.8 µM | IC50 [16]: 48.7 µM

Compound: CC(=O)Oc1cc2c(cc1OC(C)=O)-c1oc3c(CC=C(C)C)c4c(c(O)c3c(=O)c1C(C=C(C)C)O2)C=CC(C)(C)O4 (stereo unspecified) [CYCLOHETERPHYLLIN DIACETATE]
Activity [33]: 83.4% | Activity [34]: 4.9% | Activity [35]: 86% | Activity [36]: 91.3%

Compound: CC(=O)Oc1cc2c(cc1OC(C)=O)-c1oc3c(CC=C(C)C)c4c(c(OC(C)=O)c3c(=O)c1C(C=C(C)C)O2)C=CC(C)(C)O4 (stereo unspecified) [CYCLOHETERPHYLLIN PERACETATE]
Activity [33]: 74% | Activity [34]: 73% | Activity [35]: 78.3% | Activity [36]: 91%

Compound: COc1cc(O)c2c(c1)O[C@H](c1c(OC)cc(OC)cc1OC)CC2=O
Activity [7]: 27.9% | Activity [8]: 66.1% | Activity [9]: 81% | Activity [10]: 83.1%

Compound: CC(C)=CCc1c([C@@H]2CCc3ccc(O)cc3O2)cc2c(c1O)OC(C)(C)C(O)C2O (stereo partly specified) [BROUSSOFLAVAN A]
Activity [7]: 0% | Activity [8]: 0% | Activity [9]: 87.9% | Activity [10]: 92% | IC50 [6]: 86.7 µM

Compound: COc1cc2oc(-c3ccc(O)cc3O)c(CC=C(C)C)c(=O)c2c(O)c1/C=C/C(C)C [ARTOCARPIN]
Activity [24]: 54.8% | Activity [25]: 84% | Activity [26]: 76% | Activity [27]: 87.3%

Further lines, with some results ahead:

IC50 [1]: 17.5 µg/mL (≈ 41.4 µM) | IC50 [6]: 16.9 µM
Compound: CC(C)=CCc1cc(-c2oc3c(CC=C(C)C)c(O)cc(O)c3c(=O)c2O)ccc1O [BROUSSOFLAVONOL F]
Activity [2]: 0% | Activity [3]: 0% | Activity [4]: 84.8% | Activity [5]: 93.1%

IC50 [1]: 19.4 µg/mL (≈ 57 µM) | IC50 [6]: 6.8 µM | IC50 [16]: 22.4 µM | IC50 [17]: 119 µM
Compound: CC(C)=CCc1cc(C(=O)/C=C/c2ccc(O)c(O)c2)c(O)cc1O [BROUSSOCHALCONE A]
Activity [11]: 40.1% | Activity [12]: 0% | Activity [13]: 67.8% | Activity [14]: 0% | Activity [15]: 55.1% | Activity [18]: 74%

IC50 [1]: 0.7 µg/mL (≈ 1.96 µM)
Compound: COc1ccc2c(c1)c(CC(=O)O)c(C)n2C(=O)c1ccc(Cl)cc1 [INDOMETHACIN]

IC50 [6]: 18.5 µM | IC50 [16]: 23.7 µM
Compound: COc1ccc2c(c1)OC(C=C(C)C)c1c-2oc2cc(O)c(/C=C/C(C)C)c(O)c2c1=O (stereo unspecified) [CYCLOARTOCARPIN A]
Activity [24]: 39.5% | Activity [25]: 60.9% | Activity [26]: 86.5% | Activity [27]: 89.9%

IC50 [1]: 22.7 µg/mL (≈ 67.1 µM) | IC50 [6]: 15.4 µM
Compound: CC(C)=CCc1cc2c(cc1O)O/C(=C\c1ccc(O)c(O)c1)C2=O [BROUSSOAURONE A]
Activity [7]: 0% | Activity [8]: 0% | Activity [9]: 89.5% | Activity [10]: 93.7%

IC50 [1]: 155.3 µg/mL (≈ 396 µM) | IC50 [6]: 32.6 µM
Compound: CC(C)=CCc1c([C@@H]2CCc3ccc(O)cc3O2)cc2c(c1O)OC(C)(C)C=C2 [KAZINOL B]
Activity [19]: 27.6% | Activity [20]: 27.9% | Activity [29]: 0% | Activity [30]: 4% | Activity [31]: 42.6% | Activity [32]: 79.8% | Activity [18]: 23.1%

IC50 [6]: 41 µM | IC50 [16]: 90.7 µM
Compound: COc1cc(O)c2c(c1)O[C@H](c1ccc(O)cc1O)CC2=O [ARTOCARPANONE]
Activity [7]: 0% | Activity [8]: 1.1% | Activity [9]: 38.6% | Activity [10]: 90.2%

IC50 [6]: 95.9 µM
Compound: COc1cc(O)c2c(=O)cc(-c3ccc(O)cc3O)oc2c1 [ARTOCARPETIN]
Activity [7]: 0% | Activity [8]: 73.8% | Activity [9]: 85.7% | Activity [10]: 88.2%
